Source: patent US11732048B2, “Anti-axl antagonistic antibodies” (BERGEN TEKNOLOGIOVERFØRING AS, priority 2016, dated 2023)
Read-outs that look alike come from different tables or passages of the source.

Test system: MDA-MB-231 cells
Experiment: Tumour cell killing using antibody-Saporin conjugates (XTT/PMS viability)
Format: cell-based, human
Description: For generation of immunotoxin, the chimeric MAb was non-covalently coupled to a plant toxin Saporin using FabFc-ZAP human conjugate (4.5 nM final concentration) (Advanced Targeting Systems, Cat. no. IT-65). The effect of chAb-Saporin internalization on tumour cell viability was tested using Axl-positive tumour cell line MDA-MB-231 (human triple negative breast carcinoma). Eight hundred cells were seeded per well in 96-well plates in DMEM/F-12 media supplied with 10% FBS, L-glutamine (4 mM), streptomycin (5 μg/ml) and penicillin (5 U/ml) and allowed to attach for 16 hours. The cells were incubated with different dilutions of immunotoxin chAb-Saporin for 72 hrs. The viability of the cells was determined by performing an XTT/PMS assay using a CLARIOstar® microplate reader (BMG LABTECH)
Unconjugated Saporin and an isotype control antibody (human IgG1) coupled to Saporin (control SAP) were used as negative controls.
Tumour cell killing using antibody-Saporin conjugates performed as described in Example 20. A comparison of two variants of humanised 10G5 and YW327.6S2 was performed.

Saporin
EC50 (Table 4, antibody coupled to Saporin via FabFc-ZAP, MDA-MB-231, 72 hrs, read-out: EC50 (effective concentration leading to 50% cell killing)): 99.1 nM | EC50 (Table 5, antibody-Saporin conjugates as in Example 20, MDA-MB-231, read-out: EC50 (cell killing)): 247 nM
